Reference: patent US7115632B1, “Sulfonyl aryl or heteroaryl hydroxamic acid compounds” (priority 1999, dated 2006)
Structures can show the parent of a compound that is named as a salt.

Legend:
Assay in all cases: In vitro metalloprotease inhibition, fluorogenic MCA peptide substrate
Format in all cases: biochemical
MMP-1 = target: T1, MMP-1 (Homo sapiens, UniProt P03956)
T1 construct: made in house; host or cells: transfected HT-1080 cells (provided by Dr. Harold Welgus, Washington University)
T1 sequence (P03956 100-469): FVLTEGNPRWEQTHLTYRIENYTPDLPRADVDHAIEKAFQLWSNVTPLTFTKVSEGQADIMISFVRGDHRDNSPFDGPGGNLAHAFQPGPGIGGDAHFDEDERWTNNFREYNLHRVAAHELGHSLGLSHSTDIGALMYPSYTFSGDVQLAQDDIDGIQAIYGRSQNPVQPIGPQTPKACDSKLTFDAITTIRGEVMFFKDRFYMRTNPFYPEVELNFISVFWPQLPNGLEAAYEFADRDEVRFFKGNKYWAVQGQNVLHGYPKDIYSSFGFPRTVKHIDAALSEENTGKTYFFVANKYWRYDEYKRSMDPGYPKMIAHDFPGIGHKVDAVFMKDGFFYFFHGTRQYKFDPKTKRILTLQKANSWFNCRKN
Procedure: (§1) Briefly, 4-aminophenylmercuric acetate (APMA) or trypsin-activated MMPs were incubated with various concentrations of the inhibitor compound at room temperature for 5 minutes.
(§2) The expressed enzyme was purified first over a heparin agarose column and then over a chelating zinc chloride column. The proenzyme was activated by APMA for use in the assay.
(§3) MMP-1 expressed in transfected HT-1080 cells was provided by Dr. Harold Welgus of Washington University, St. Louis, Mo. The enzyme was also activated using APMA and was then purified over a hydroxamic acid column. Dr. Welgus also provided transfected HT-1080 cells that expressed MMP-9. Transfected cells that expressed MMP-2 were provided by Dr. Gregory Goldberg, also of Washington University.
(§4) The ID50 values were calculated from those values.

MMP-13 = target: T2, MMP-13 (Homo sapiens, UniProt P45452)
T2 construct: made in house; host or cells: insect cells, baculovirus expression
Procedure: as §1, §2, §3, §4

MMP-2 = target: T3, MMP-2 (Homo sapiens, UniProt P08253)
T3 construct: made in house; provided by Dr. Gregory Goldberg, Washington University
T3 sequence (P08253 110-660): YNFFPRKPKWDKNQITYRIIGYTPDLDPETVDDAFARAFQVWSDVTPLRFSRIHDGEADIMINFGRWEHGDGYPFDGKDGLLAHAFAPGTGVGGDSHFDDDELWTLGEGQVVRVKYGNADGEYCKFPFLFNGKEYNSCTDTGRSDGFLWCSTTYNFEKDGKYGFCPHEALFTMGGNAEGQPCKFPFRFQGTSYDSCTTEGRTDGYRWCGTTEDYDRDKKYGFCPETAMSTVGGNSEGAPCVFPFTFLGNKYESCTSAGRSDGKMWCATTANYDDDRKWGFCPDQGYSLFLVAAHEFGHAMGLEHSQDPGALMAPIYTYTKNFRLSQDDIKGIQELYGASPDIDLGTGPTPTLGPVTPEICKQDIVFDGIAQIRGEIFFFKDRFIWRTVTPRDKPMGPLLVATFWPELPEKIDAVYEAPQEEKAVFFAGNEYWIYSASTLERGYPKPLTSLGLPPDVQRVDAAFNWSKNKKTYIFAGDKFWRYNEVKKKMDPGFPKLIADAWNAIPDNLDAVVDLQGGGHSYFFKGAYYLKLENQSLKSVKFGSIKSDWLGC
Procedure: as §1, §2, §3, §4

SMILES | IC50 (MMP-1; Inhibition Table B) [µM] | IC50 (MMP-13; Inhibition Table B) [µM] | IC50 (MMP-2; Inhibition Table B) [µM] | IC50 (MMP-13; Inhibition Table A) [µM] | IC50 (MMP-2; Inhibition Table A) [µM] | also measured
O=C(NO)c1c(Cl)sc(Cl)c1S(=O)(=O)N1CCC(Oc2ccc(C(F)(F)F)cc2)CC1 [Example 32, 2,5-Dichloro-N-hydroxy-4-[[4-{4-(trifluoromethyl)phenoxy]-1-piperidinyl]sulfonyl]-3-thiophenecarboxamide] | > 10 | 0.73 | 0.11 | – | – | –
COC1CCN(S(=O)(=O)c2ccc3c(c2C(=O)NO)OCCO3)CC1 [Example 30, 2,3-Dihydro-N-hydroxy-6-[(4-methoxy-1-piperidinyl)sulfonyl]-1,4-benzodioxin-5-carboxamide] | > 10 | > 10 | > 10 | – | – | –
O=C(NO)c1ccccc1S(=O)(=O)N1CCN(C(=O)c2ccccc2)CC1 [Example 51, 2-[(4-Benzoyl-1-piperazinyl)sulfonyl]-N-hydroxybenzamide] | > 10 | – | – | – | – | –
CCCCOc1ccc(N2CCN(S(=O)(=O)c3ccc(OC)c(OC)c3C(=O)NO)CC2)cc1C [Example 56, 6-[[4-(4-Butoxy-3-methylphenyl)-1-piperazinyl]sulfonyl]-N-hydroxy-2,3-dimethoxybenzamide, monohydrochloride] | > 10 | 0.02 | 0.009 | – | – | –
CCCCCCCOC1CCN(S(=O)(=O)c2ccc3c(c2C(=O)NO)OCO3)CC1 [Example 44, 5-[(4-Heptyloxy-1-piperidinyl)sulfonyl]-N-hydroxy-1,3-benzodioxole-4-carboxamide] | > 10 | 0.33 | 0.206 | – | – | –
CC(O)(C(=O)NO)c1ccccc1S(=O)(=O)N1CCC(c2ccccc2)CC1 (stereo not shown) [Example 10] | – | – | – | 0.52 | 0.07 | –
O=C(NO)c1ccccc1CS(=O)(=O)c1ccc(Oc2ccccc2)cc1 [Example 1, N-hydroxy-2-[[(4-phenoxyphenyl)sulfonyl]methyl]benzamide] | – | – | – | 0.045 | 0.01 | –
COc1ccc(S(=O)(=O)Cc2ccccc2C(=O)NO)cc1 [Example 6] | – | – | – | 4 | – | IC50 (MMP-1; Inhibition Table A): > 10 µM
COc1ccc(S(=O)(=O)N2CCC(Oc3ccc(C(F)(F)F)cc3)CC2)c(C(=O)NO)c1OC [Example 16, N-Hydroxy-2,3-dimethoxy-6-[[4-[4-(trifluoromethyl)phenoxy]-1-piperidinyl)sulfonyl]benzamide] | – | – | – | 0.0027 | 0.0024 | –
O=C(NO)c1ccccc1S(=O)(=O)N1CCC(Oc2ccc(OC(F)(F)F)cc2)CC1 [Example 12, N-Hydroxy-2-[[4-[4-(trifluoromethoxy)phenoxy]-1-piperidinyl]sulfonyl]benzamide] | – | – | – | – | 0.0022 | –
O=C(NO)c1ccccc1S(=O)(=O)N1CCC(Oc2ccc(C(F)(F)F)cc2)CC1 [Example 13, N-hydroxy-2-[[4-[4-(trifluoromethyl)phenoxy]-1-piperidinyl]sulfonyl]benzamide] | – | – | – | 0.0285 | – | –
COCCOc1cccc(S(=O)(=O)N2CCC(Oc3ccc(C(F)(F)F)cc3)CC2)c1C(=O)NO [Example 23, N-Hydroxy-2-(2-methoxyethoxy)-6-[[4-[4-(trifluoromethyl)phenoxy]-1-piperidinyl]sulfonyl]benzamide] | – | 0.0043 | 0.001 | – | – | –
O=C(NO)c1ccccc1S(=O)(=O)N1CCC(Oc2ccccn2)CC1 [Example 42, N-hydroxyl-2-[[4-(2-pyridinyloxy)-1-piperidinyl]sulfonyl]benzamide, monohydrochloride] | – | 1.2 | 0.042 | – | – | –
O=C(NO)c1ccccc1NS(=O)(=O)c1ccc(Oc2ccccc2)cc1 [Example 5, N-hydroxy-2-[[(4-phenoxyphenyl)sulfonyl]amino]benzamide] | – | – | – | – | 3.5 | –
O=C(NO)c1ccccc1S(=O)(=O)N1CCC(c2ccccc2)CC1 [Example 9, N-Hydroxy-2-[[4-(phenyl)-1-piperidinyl]sulfonyl]benzamide] | – | – | – | 1.5 | 0.045 | –
O=C(NO)c1c(F)cccc1S(=O)(=O)N1CCC(Oc2ccc(C(F)(F)F)cc2)CC1 [Example 19, 2-Fluoro-N-hydroxy-6-[[4-[4-(trifluoromethyl)phenoxy]-1-piperidinyl]sulfonyl]benzamide] | – | – | – | – | 0.005 | –
